Data set [1] can be described thus: Tear film pharmacokinetics (LC/MS of tear washes).
In data set [2] the target is human wildtype CFTR (Homo sapiens, UniProt P13569). The data set is described as follows: Short-circuit current (Isc) in FRT cells expressing human wild-type CFTR.
The test system of data set [3] is FRT cells. The data set is described as follows: Alamar Blue cytotoxicity assay in FRT cells. The class given is cell-based, rat. To be noted: up to 100 μM, 1 or 24 h.
Data set [4] is described as follows: Compound accumulation in systemic tissues after 14 days topical dosing. The class given is in vivo, mouse.
For data set [5], the system named is LGE BALB/c mice. The data set can be described thus: Lacrimal gland excision (LGE) mouse model of aqueous-deficient dry eye. The class given is in vivo. How it is done: (§1) To assess corneal epithelial disruption, 5 μL of lissamine green (LG) dye (1%) was applied to the ocular surface of isofluorane-anesthetized mice. Photographs of the eye were taken using a Nikon Digital camera adapted to an Olympus Zoom Stereo Microscope (Olympus, Center Valley, Pa., USA). Each corneal quadrant was scored on a 3-point scale by one blinded, trained observer, with the extent of staining in each quadrant classified as: 0, no staining; 1, sporadic (involving <25% of the total surface) staining; grade 2, diffuse punctate staining (25-75%); and grade 3, coalesced punctate staining (>75%). The total grade is reported as the sum of scores from all four quadrants, ranging from 0 to 12.
A lacrimal gland excision (LGE) model of aqueous-deficient dry eye was adapted from a reported method (30). The extraorbital lacrimal gland was exposed on each side of wild-type female BALB/c mice (7-8 weeks of age) by 3-mm linear skin incisions. Lacrimal ducts were cauterized and the entire gland was removed bilaterally, avoiding facial vessels and nerves. Incisions were each closed with a single interrupted 6-0 silk suture. Orbital lacrimal tissue remained functional. Eyes with reduced corneal sensation (<5% of mice studied), as identified from neurotrophic corneal ulcers within 1 day of LGE, were excluded. Mice were randomized to receive either treatment (in both eyes) with CFTRact-K089 (0.1 nmol) or vehicle. Mice were treated three times daily (8 AM, 2 PM and 8 PM) for 2 weeks starting on Day 1 after LGE. Tear secretion and LG staining were performed immediately prior to, and one hour after the initial dose on day 4, 10 and 14 after LGE.
Lissamine green staining. […] Each corneal quadrant was scored on a 3-point scale by one blinded, trained observer, with the extent of staining in each quadrant classified as: 0, no staining; 1, sporadic (involving <25% of the total surface) staining; grade 2, diffuse punctate staining (25-75%); and grade 3, coalesced punctate staining (≥75%). […]

In data set [6] the test system is tear fluid secretion. The class given is in vivo, mouse.
The subject of data set [7] is CFTR at the ocular surface. The data set is described as follows: Ocular surface potential difference (PD) in living mice. The class given is in vivo, mouse. Conditions: wild-type mice. How it is done: Open-circuit transepithelial PD were measured continuously in anesthetized mice in response to serial perfusions of different solutions over the ocular surface, as described (21). Mice were anesthetized with Avertin (2,2,2-tribromoethanol, 125 mg/kg intraperitoneal, Sigma-Aldrich, St. Louis, Mo., USA), and core temperature was maintained at 37° C. using a heating pad. Eyes were oriented with the cornea and conjunctiva facing upward and exposed by retracting the eyelid with cross-action forceps. Solutions were isosmolar (320±10 mOsM; compositions provided in ref. 21) and contained 10μ[…] indomethacin to prevent CFTR activation by prostaglandins. The ocular surface was perfused at 6 mL/min through plastic tubing using a multireservoir gravity pinch-valve system (ALA Scientific, Westbury, N.Y., USA) and variable-flow peristaltic pump (medium flow model; Fisher Scientific, Fair Lawn, N.J., USA). A probe catheter was fixed 1 mm above the cornea using a micropositioner and a suction cannula was positioned 3 mm from the orbit. The measuring electrode was in contact to the perfusion catheter and connected to a high-impedance voltmeter (IsoMilivolt Meter; WPI). The reference electrode was grounded via a winged 21-gauge needle filled with isosmolar saline, and inserted subcutaneously in the abdomen. Measuring and reference electrodes consisted of Ag/AgCl with 3 M KCl agar bridges.
An open-circuit potential difference (PD) method developed in our lab was used to evaluate compound activity at the ocular surface in vivo, as depicted in FIG. 3A (21). Cl^− channel function was quantified by measuring PD during continuous perfusion of the ocular surface with a series of solutions that imposed a transepithelial Cl^− gradient and contained various channel agonists and/or inhibitors. The ocular surface was first perfused with isosmolar saline to record the baseline PD. Amiloride was then added to the perfusate, followed by exchange to a low Cl^− solution in which Cl^− with an impermeant anion, gluconate. These maneuvers allow for direct visualization of CFTR activation in response to addition of candidate CFTR activators.
Ocular surface potential difference measurements. Open-circuit transepithelial PD were measured continuously in anesthetized mice in response to serial perfusions of different solutions over the ocular surface, as described (21). Mice were anesthetized with Avertin (2,2,2-tribromoethanol, 125 mg/kg intraperitoneal, Sigma-Aldrich, St. Louis, Mo., USA), and core temperature was maintained at 37° C. using a heating pad. Eyes were oriented with the cornea and conjunctiva facing upward and exposed by retracting the eyelid with cross-action forceps. […]

Data set [8] in a line: Ocular toxicity after chronic topical dosing (slit-lamp, lissamine green staining). The class given is in vivo. Conditions: chronically treated mice. Here is the method: as §1
as §1, with “Lissamine green staining. To” for “To”, “(≥75%).” for “(>75%).”

Entries after “also recorded” stand apart in the source; their conditions may differ.

Chain of human wildtype CFTR (P13569 whole entry): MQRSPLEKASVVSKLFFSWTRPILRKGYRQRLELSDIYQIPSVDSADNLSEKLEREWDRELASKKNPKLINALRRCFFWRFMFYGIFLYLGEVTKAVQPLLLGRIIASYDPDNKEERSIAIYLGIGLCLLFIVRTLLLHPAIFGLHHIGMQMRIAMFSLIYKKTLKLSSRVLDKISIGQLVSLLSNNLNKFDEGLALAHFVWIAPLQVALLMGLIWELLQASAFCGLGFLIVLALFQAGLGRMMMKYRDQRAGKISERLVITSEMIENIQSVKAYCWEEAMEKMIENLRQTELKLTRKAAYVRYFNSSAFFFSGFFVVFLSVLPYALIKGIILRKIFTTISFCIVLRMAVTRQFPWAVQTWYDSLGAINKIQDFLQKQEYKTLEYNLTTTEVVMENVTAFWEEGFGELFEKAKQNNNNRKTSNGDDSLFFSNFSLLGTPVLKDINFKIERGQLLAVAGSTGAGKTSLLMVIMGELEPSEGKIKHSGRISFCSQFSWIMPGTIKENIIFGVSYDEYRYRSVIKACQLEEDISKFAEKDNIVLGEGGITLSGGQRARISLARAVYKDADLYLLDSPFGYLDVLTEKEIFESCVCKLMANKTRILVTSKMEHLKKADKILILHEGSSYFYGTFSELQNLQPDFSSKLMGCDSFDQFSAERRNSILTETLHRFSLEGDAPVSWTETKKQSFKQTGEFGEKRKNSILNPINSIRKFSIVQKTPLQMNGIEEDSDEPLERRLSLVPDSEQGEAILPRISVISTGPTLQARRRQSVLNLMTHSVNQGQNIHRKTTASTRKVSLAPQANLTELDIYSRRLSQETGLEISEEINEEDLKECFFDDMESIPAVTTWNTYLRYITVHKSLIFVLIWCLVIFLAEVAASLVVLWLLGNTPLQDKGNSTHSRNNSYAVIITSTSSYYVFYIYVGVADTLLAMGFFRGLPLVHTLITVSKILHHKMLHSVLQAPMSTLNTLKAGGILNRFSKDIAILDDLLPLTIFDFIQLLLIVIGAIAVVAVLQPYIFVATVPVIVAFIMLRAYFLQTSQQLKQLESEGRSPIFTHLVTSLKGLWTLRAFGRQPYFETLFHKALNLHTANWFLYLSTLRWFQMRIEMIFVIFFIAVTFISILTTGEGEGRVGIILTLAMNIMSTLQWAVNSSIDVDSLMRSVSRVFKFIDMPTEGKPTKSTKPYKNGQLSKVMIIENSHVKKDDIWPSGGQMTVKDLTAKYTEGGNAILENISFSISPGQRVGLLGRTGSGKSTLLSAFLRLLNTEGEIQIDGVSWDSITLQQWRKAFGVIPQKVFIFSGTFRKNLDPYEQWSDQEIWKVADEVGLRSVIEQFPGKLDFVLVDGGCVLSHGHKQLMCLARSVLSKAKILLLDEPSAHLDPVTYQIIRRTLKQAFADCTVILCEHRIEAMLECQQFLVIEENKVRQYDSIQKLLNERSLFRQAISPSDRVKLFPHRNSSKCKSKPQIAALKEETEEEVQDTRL

For the molecule `CCN(CC)c1nc(Nc2ccccc2)nc(OC(C(F)(F)F)C(F)(F)F)n1` [CFTRact-K089], the “amount recovered from tear washes at six hours” value in data set [1] (0.1 nmol (2 μL, 50 μM) instilled) worked out at 0.011 ± 0.004 pmol. In addition, the “duration of predicted therapeutic tear fluid levels” value in data set [1] (0.1 nmol single dose) is on record as “therapeutic levels for at least six hours”. In addition, the “CFTR activation (% Vmax)” value in data set [2] (100% = 20 μM forskolin) is around 50 % Vmax. The “extent of CFTR activation (Isc)” value in data set [2] (forskolin produced little or no further increase in current) is given as “fully activated CFTR”. Also, the EC50 in data set [2] (read-out: EC50 for CFTR activation, FRT cells, wild-type CFTR, short-circuit current) was around 0.25 µM. Also, the in vitro cytotoxicity result in data set [3] is “no appreciable in vitro cytotoxicity”. Also, the “systemic absorption after topical delivery” value in data set [4] (topical) is “without detectable systemic absorption”. The “amount in mouse blood, brain, liver and kidney (limit of detection)” value in data set [4] (two weeks of three times per day topical dosing) is reported as below 10 fmol. Further, in data set [5] (0.1 nmol three times daily), the “corneal / ocular surface epithelial disruption after LGE” value was “fully prevented the corneal epithelial disruption; also recorded: prevented ocular surface epithelial disruption at all time points”. Besides, in data set [5] (0.1 nmol topically three times daily), the “tear volume after LGE” value was “restored tear secretion to basal levels; also recorded: maintained basal tear volume”. The same molecule registered an LG score change in data set [5] (12-point scale, by Day 14, 0.1 nmol three times daily) of −0.6±0.6. For the same molecule, the “tear fluid secretion in CF mice” value in data set [6] (CF mice) is listed as “no effect in CF mice”. In addition, the “tear fluid secretion after single topical dose” value in data set [6] (wild-type mice, B074 100 μM, J027 and K089 50 μM, VX-770 10 μM, cholera toxin 0.1 μg/mL, forskolin 20 μM, IBMX 250 μM) is reported as “doubled basal tear secretion for four hours; also recorded: increased tear fluid secretion by approximately two-fold for at least four hours”. Moreover, the “hyperpolarization in ocular surface potential difference” value in data set [7] was around 8.5 mV. Besides, the “change in ocular surface PD” value in data set [7] (1-10 μM) is “large hyperpolarizations”. Besides, the “LG staining of cornea and conjunctiva” value in data set [8] is given as “no corneal or conjunctival epithelial disruption”. In addition, in data set [8] (topical three times daily, two weeks), the “ocular toxicity (slit-lamp evaluation)” value is “no signs of ocular toxicity”.

The values above are taken from patent US11084795B2, “CFTR regulators and methods of use thereof” (The Regents of the University of California, priority 2015, dated 2021).
